# ChEMBL document CHEMBL1136015, “Inhibitors of human histone deacetylase: synthesis and enzyme and cellular activity of straight chain hydroxamates” (J Med Chem, 2002)
# Square brackets hold non-standard residues; d marks the D form. Peptide text beside a SMILES is read from it. Aoe = N[C@@H](CCCCCC(=O)[C@@H]1CO1)C(=O)O
# What was measured:
# [1] = target: Histone deacetylase; test: Induction of p21 using Histone deacetylase inhibitors; assay type: protein assay, Homo sapiens
# [2] = target: Histone deacetylase; test: Concentration required to inhibit human Histone deacetylase (HDAC) enzyme by 50%; assay type: protein assay
# [3] = Concentration required to inhibit the breast MDA-MB-435S cell growth by 50%,P53 status of cell line used was mutant-type.; assay type: functional; conditions: Homo sapiens
# [4] = test system: SW-620; test: Concentration required to inhibit the colon SW 620 cell growth by 50%,P53 status of cell line used was mutant-type.; assay type: functional, cell-based; conditions: Homo sapiens
# [5] = test system: LS174T; test: Concentration required to inhibit the colon LS 174T cell growth by 50%,P53 status of cell line used was […].; assay type: functional, cell-based; conditions: Homo sapiens
# [6] = test system: HCT-116; test: Concentration required to inhibit the colon HCT116 cell growth by 50%,P53 status of cell line used was wild-type.; assay type: functional, cell-based; conditions: Homo sapiens
# [7] = test system: A549; test: Concentration required to inhibit the lung A549 cell growth by 50%,P53 status of cell line used was wild-type.; assay type: functional, cell-based; conditions: Homo sapiens
# [8] = test system: HCT-116; test: Concentration required to inhibit the HCT116 cell growth by 50%.; assay type: functional, cell-based; conditions: Homo sapiens
# [9] = test system: NCI-H1299; test: Concentration required to inhibit the lung H1299 cell growth by 50%,P53 status of cell line used was deleted.; conditions: Homo sapiens
# [10] = target: Histone deacetylase; test: Concentration required to inhibit the partially purified HDAC enzyme by 50% obtained from H1299 cell lysate; assay type: functional, cell-based, Homo sapiens
# [11] = test system: T-24; test: Concentration required to inhibit the bladder T24 cell growth by 50%,P53 status of cell line used was mutant.; conditions: Homo sapiens
# [12] = test system: A-431; test: Concentration required to inhibit the epidermoid A431 cell growth by 50%, P53 status of cell line used was mutant.; conditions: Homo sapiens
SMILES,AC50 [1] [µM],IC50 [2] [µM],IC50 [8] [nM],IC50 [10] [µM],further results
CN(C)c1ccc(C(=O)NCCCCCCC(=O)NO)cc1,2.1,0.046,210,1.62,IC50 [3]: 1300 nM; IC50 [4]: 700 nM; IC50 [5]: 1500 nM; IC50 [6]: 200 nM; IC50 [7]: 800 nM; IC50 [9]: 3.9 µM; IC50 [11]: 3.8 µM; IC50 [12]: 2300 nM
CN(C)c1ccc(C(=O)NCCCCC(=O)NO)cc1,> 10,> 10,–,–,–
O=C(CCCCCN1C(=O)c2ccccc2C1=O)NO,7.5,0.515,–,–,–
O=C(CCCCCNC(=O)c1ccc(OCc2ccccc2)cc1)NO,> 10,0.22,–,–,–
O=C(CCCCCCC(=O)Nc1ccccn1)NO,–,–,2000,–,–
O=C(CCCCCCC(=O)Nc1ccncc1)NO,8.9,0.306,5400,> 10,–
COc1ccc(NC(=O)CCCCCCC(=O)NO)cc1,2.4,0.279,> 10000,> 10,–
CN(CCCCCC(=O)NO)C(=O)c1ccc(N(C)C)cc1,> 10,0.443,–,–,–
O=C(CCCCCCC(=O)Nc1cccnc1)NO [PYROXAMIDE],–,–,6500,–,–
O=C1N[C@@H](Cc2ccccc2)C(=O)N2CCC[C@@H]2C(=O)N[C@@H](CCCCCC(=O)[C@@H]2CO2)C(=O)N[C@H]1Cc1ccccc1 [TRAPOXIN B] (cyclo(FF[dP][Aoe])),–,–,2,–,–
CC(/C=C/C(=O)NO)=C\[C@@H](C)C(=O)c1ccc(N(C)C)cc1 [TRICHOSTATIN],–,–,13,–,–

# More lines, main results first:
AC50 [1] [µM],IC50 [2] [µM],IC50 [8] [nM],IC50 [10] [µM],SMILES,further results
> 10,1.556,–,–,O=C(CCCCCNC(=O)c1ccc([N+](=O)[O-])cc1)NO,–
1.6,0.145,500,2.18,CN(C)c1ccc(C(=O)NCCCCCCCC(=O)NO)cc1,–
> 10,0.265,–,–,O=C(CCCCCNC(=O)c1ccc(-c2ccccc2)cc1)NO,–
> 10,0.369,–,–,O=C(CCCCCNC(=O)c1ccc(Cl)cc1)NO,–
4.1,0.27,1720,> 10,O=C(O)CCCCCCC(=O)c1ccccc1,–
> 10,> 10,–,–,CONC(=O)CCCCCNC(=O)c1ccccc1,–
> 10,> 10,–,–,NNC(=O)CCCCCNC(=O)c1ccccc1,–
5.7,0.568,1040,> 10,O=C(CCCCCCNC(=O)c1ccccc1)NO,–
